From publication PMC3303751, “Development of Tyrosine-Based Radiotracer ^99mTc-N4-Tyrosine for Breast Cancer Imaging” (Journal of Biomedicine and Biotechnology, 2012)

What was measured:
[1] = Partition coefficient (1-octanol/sterile water); assay type: physicochemical; conditions: room temperature
Experimental: To determine the lipophilicity, 20 μL of ^99mTc-N4-Tyrosine was added into an equal volume mixture of 1-octanol and sterile water in a centrifuge tube. The mixture was vortexed at room temperature for 1 minute and then centrifuged at 5,000 rpm for 5 minutes to allow phase separation. From each phase, 0.1 mL of the aliquot was taken out, and the radioactivity was measured by gamma counter (Cobra Quantum, Packard, MN, USA). The measurement was repeated 3 times, and care was taken to avoid cross-contamination between the phases. The partition coefficient value, expressed as log P, was calculated using the following equation:
(1) Log P= log(radioactivity in 1‐octanol layer/radioactivity in sterile water layer)

[2] = test system: rat breast tumor cell line 13762; test: In vitro cellular uptake; assay type: cell-based; conditions: 13762 cells
Experimental: Rat breast tumor cell line 13762 (American Type Culture Collection, Rockville, MD, USA) was used for both in vitro studies and to create the animal model for in vivo evaluation. All cells were maintained in Dulbecco's modified Eagle's medium and nutrient mixture F-12 Ham (DMEM/F12; GIBCO, Grand Island, NY) at 37°C in a humidified atmosphere containing 5% CO2.
For in vitro cellular uptake analysis, cells were plated onto 6-well tissue culture plates (2 × 10^5 cells/well) 48 hours before adding the radiotracers and incubated with ^99mTc-N4-Tyrosine (0.05 mg/well, 8 μCi/well), ^99mTc-N4 (0.025 mg/well, 8 μCi/well), or ^18F-FDG (8 μCi/well) for 0–4 hours. After incubation, cells were washed with ice-cold phosphate-buffered solution twice and detached using a treatment of 0.5 mL of trypsin for 5 minutes. Cells were then collected, and the radioactivity of the cells was measured in triplicate with a gamma counter (Cobra Quantum). Radioactivity was expressed as mean ± standard deviation (SD) percent of cellular uptake (%Uptake).

[3] = Blood clearance in normal rats; assay type: in vivo; conditions: normal female Fischer 344 rats, i.v. 30 μCi
Experimental: All animal work was carried out in the Small Animal Imaging Facility at MD Anderson under a protocol approved by the Institutional Animal Care and Use Committee. For blood clearance analysis, 3 normal female Fischer 344 rats (150 ± 25 g; Harlan Sprague-Dawley, Indianapolis, IN, USA) were intravenously injected with 30 μCi of ^99mTc-N4-Tyrosine. Blood samples (n = 3/rat) were drawn from each rat through the lateral tail vein by microliter pipette (10 μL) at several time points between 5 minutes and 24 hours after injection. The blood samples were measured for radioactivity by gamma counter, and the radioactivity was expressed as a percentage of the injected dose per gram of blood (%ID/g).

[4] = Tissue distribution in normal rats; assay type: in vivo, Fischer 344 rats; conditions: for tissue distribution, Blood / tissue distribution, Bone and joint / tissue distribution, Brain / tissue distribution, Heart / tissue distribution, Intestine / tissue distribution, Kidney / tissue distribution, Liver / tissue distribution, Lung / tissue distribution, Muscle / tissue distribution, Pancreas / tissue distribution, Spleen / tissue distribution, Stomach / tissue distribution, Thyroid: i.v.
Experimental: Tissue distribution studies of ^99mTc-N4-Tyrosine were conducted using normal female Fischer 344 rats (150 ± 25 g, n = 9). The rats were divided into 3 groups, and each rat was injected intravenously with 25 ± 0.5 μCi of ^99mTc-N4-Tyrosine. Each group was examined at 1 of 3 time points (0.5, 2, or 4 hours after injection). At each time point, the rats were killed, and the selected tissues were excised, weighed, and measured for radioactivity by gamma counter. For each sample, radioactivity was expressed as mean percentage of the injected dose per gram of tissue wet weight (%ID/g). Counts from a 1/10 diluted sample of the original injection were used as a reference.

^99mTc-O-[3-(1,4,8,11-tetraazabicyclohexadecane)-propyl]-tyrosine [^99mTc-N4-Tyrosine]
log P [1]: −2.83 ± 0.082 | mean %Uptake compared with ^18F-FDG ([2]; 8 μCi/well): much higher than that of ^18F-FDG | cellular uptake kinetics (%Uptake) ([2]; incubation 15-240 minutes): increased dramatically up to 240 minutes | plasma half-life of the distribution phase (t1/2α) [3]: 9.31 ± 0.759 min | plasma half-life of the elimination phase (t1/2β) [3]: 90.14 ± 1.901 min | tissue distribution, Blood ([4]; 30 min after injection): 0.88 %ID/g | tissue distribution, Bone and joint ([4]; 30 min after injection): 0.24 %ID/g | tissue distribution, Brain ([4]; 30 min after injection): 0.03 %ID/g | tissue distribution, Heart ([4]; 30 min after injection): 0.21 %ID/g | tissue distribution, Intestine ([4]; 30 min after injection): 0.34 %ID/g | tissue distribution, Kidney ([4]; 30 min after injection): 11.05 %ID/g | tissue distribution, Liver ([4]; 30 min after injection): 1.15 %ID/g | tissue distribution, Lung ([4]; 30 min after injection): 0.50 %ID/g | tissue distribution, Muscle ([4]; 30 min after injection): 0.07 %ID/g | tissue distribution, Pancreas ([4]; 30 min after injection): 0.17 %ID/g | tissue distribution, Spleen ([4]; 30 min after injection): 0.94 %ID/g | tissue distribution, Stomach ([4]; 30 min after injection): 0.20 %ID/g | tissue distribution, Thyroid ([4]; 30 min after injection): 0.34 %ID/g | tissue distribution, Blood ([4]; 120 min after injection): 0.20 %ID/g | tissue distribution, Bone and joint ([4]; 120 min after injection): 0.15 %ID/g | tissue distribution, Brain ([4]; 120 min after injection): 0.02 %ID/g | tissue distribution, Heart ([4]; 120 min after injection): 0.06 %ID/g | tissue distribution, Intestine ([4]; 120 min after injection): 0.13 %ID/g | tissue distribution, Kidney ([4]; 120 min after injection): 12.34 %ID/g | tissue distribution, Liver ([4]; 120 min after injection): 0.70 %ID/g | tissue distribution, Lung ([4]; 120 min after injection): 0.19 %ID/g | tissue distribution, Muscle ([4]; 120 min after injection): 0.03 %ID/g | tissue distribution, Pancreas ([4]; 120 min after injection): 0.07 %ID/g | tissue distribution, Spleen ([4]; 120 min after injection): 0.76 %ID/g | tissue distribution, Stomach ([4]; 120 min after injection): 0.08 %ID/g | tissue distribution, Thyroid ([4]; 120 min after injection): 0.10 %ID/g | tissue distribution, Blood ([4]; 240 min after injection): 0.17 %ID/g | tissue distribution, Bone and joint ([4]; 240 min after injection): 0.12 %ID/g | tissue distribution, Brain ([4]; 240 min after injection): 0.01 %ID/g | tissue distribution, Heart ([4]; 240 min after injection): 0.05 %ID/g | tissue distribution, Intestine ([4]; 240 min after injection): 0.11 %ID/g | tissue distribution, Kidney ([4]; 240 min after injection): 12.40 %ID/g | tissue distribution, Liver ([4]; 240 min after injection): 0.67 %ID/g | tissue distribution, Lung ([4]; 240 min after injection): 0.14 %ID/g | tissue distribution, Muscle ([4]; 240 min after injection): 0.02 %ID/g | tissue distribution, Pancreas ([4]; 240 min after injection): 0.05 %ID/g | tissue distribution, Spleen ([4]; 240 min after injection): 0.63 %ID/g | tissue distribution, Stomach ([4]; 240 min after injection): 0.06 %ID/g | tissue distribution, Thyroid ([4]; 240 min after injection): 0.09 %ID/g | stability in vivo ([4]; inferred from low thyroid and stomach uptake): high stability in vivo
